From patent publication US20220089592A1, “IMIDAZO[1,2-A]PYRIDINYL DERIVATIVES AS IRAK4 INHIBITORS” (priority 2019, published 2022)

What follows are compounds tested against T1, IRAK4 (Homo sapiens, UniProt Q9NWZ3) (assay: 2-hour 1 mM ATP IRAK4 Biochemical assay (as above, but with 100 pM IRAK4 and 1 mM ATP)). Conditions: IRAK4 MSD BIOCHEMICAL (1 mM ATP) IC50 (μM), 100 pM IRAK4, 2 hours.
T1 sequence (Q9NWZ3 1-460): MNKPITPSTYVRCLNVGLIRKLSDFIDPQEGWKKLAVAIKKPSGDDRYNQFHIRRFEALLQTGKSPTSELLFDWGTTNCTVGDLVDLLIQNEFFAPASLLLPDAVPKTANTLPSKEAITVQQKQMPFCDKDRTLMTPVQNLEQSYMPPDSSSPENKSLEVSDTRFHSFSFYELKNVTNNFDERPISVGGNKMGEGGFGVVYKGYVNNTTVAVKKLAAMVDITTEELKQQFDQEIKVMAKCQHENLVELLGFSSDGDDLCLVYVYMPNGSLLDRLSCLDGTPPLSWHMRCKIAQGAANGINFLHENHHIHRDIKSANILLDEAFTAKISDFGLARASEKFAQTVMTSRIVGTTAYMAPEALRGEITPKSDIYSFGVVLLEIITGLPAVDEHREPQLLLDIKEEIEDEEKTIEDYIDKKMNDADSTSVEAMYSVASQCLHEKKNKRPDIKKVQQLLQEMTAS
Outline: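 Run with 100 pM IRAK4 and 1 mM ATP for 2 hours, quenched with EDTA pH 8. Phosphorylated biotinylated peptide captured on streptavidin MSD plates and detected with anti-phosphothreonine antibody plus Sulfo-Tag secondary by electrochemiluminescence.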

Row | SMILES | IC50 [µM]
1 | Cc1cccc(C(=O)Nc2cn3cc(C4CCOCC4)nc3cc2C(F)F)n1 [Example 315, N-(7-(difluoromethyl)-2-(tetrahydro-2H-pyran-4-yl)imidazo[1,2-a]pyridin-6-yl)-6-methylpicolinamide] | 0.021
2 | CCOc1nc(NC(=O)c2coc(C)n2)cn2cc(C34COC(C)(C3)C4)nc12 [Example 473, N-(8-ethoxy-2-(1-methyl-2-oxabicyclo[2.1.1]hexan-4-yl)imidazo[1,2-a]pyrazin-6-yl)-2-methyloxazole-4-carboxamide] | 0.031
3 | CC(C)Oc1cc2nc(-c3cn(C)nc3C(F)F)cn2cc1NC(=O)c1cccc(C(F)F)n1 [Example 264, 6-(difluoromethyl)-N-(2-(3-(difluoromethyl)-1-methyl-1H-pyrazol-4-yl)-7-isopropoxyimidazo[1,2-a]pyridin-6-yl)picolinamide] | 0.002
4 | CC(C)Oc1c(NC(=O)c2cccn(C(F)F)c2=O)cn2cc(C34COC(C)(C3)C4)nc2c1F [Example 324, 1-(difluoromethyl)-N-(8-fluoro-7-isopropoxy-2-(1-methyl-2-oxabicyclo[2.1.1]hexan-4-yl)imidazo[1,2-a]pyridin-6-yl)-2-oxo-1,2-dihydropyridine-3-carboxamide] | 0.002
5 | CCOc1cc(NC(=O)c2cccc(C(F)F)n2)cn2cc(C3CCCOC3)nc12 (single isomer, unassigned) [Example 285, 6-(difluoromethyl)-N-(8-ethoxy-2-(tetrahydro-2H-pyran-3-yl)imidazo[1,2-a]pyridin-6-yl)picolinamide] | 0.006
6 | COc1cc(NC(=O)c2cccc(C(F)F)n2)cn2cc(C34CC(F)(C3)C4)nc12 [Example 535, 6-(difluoromethyl)-N-(2-(3-fluorobicyclo[1.1.1]pentan-1-yl)-8-methoxyimidazo[1,2-a]pyridin-6-yl)picolinamide] | 0.05
7 | CCOc1cc2nc(C34COCC3C4)cn2cc1NC(=O)c1cccc(C(F)F)n1 (centres unmarked) [Example 518, N-(2-(3-oxabicyclo[3.1.0]hexan-1-yl)-7-ethoxyimidazo[1,2-a]pyridin-6-yl)-6-(difluoromethyl)picolinamide] | 0.001
8 | Cc1cc(NC(=O)c2cccc(C(F)F)n2)cn2cc(C34COC(C)(C3)C4)nc12 [Example 406, 6-(difluoromethyl)-N-(8-methyl-2-(1-methyl-2-oxabicyclo[2.1.1]hexan-4-yl)imidazo[1,2-a]pyridin-6-yl)picolinamide] | 0.032
9 | CC(C)Oc1cc2nc(-c3cccc(F)c3)cn2cc1NC(=O)c1cccc(C(F)F)n1 [Example 538, 6-(difluoromethyl)-N-(2-(3-fluorophenyl)-7-isopropoxyimidazo[1,2-a]pyridin-6-yl)picolinamide 2,2,2-trifluoroacetate] | 0.003
10 | CCOc1cc2nc(CC3CCOC3)cn2cc1NC(=O)c1cccc(C(F)F)n1 (centres unmarked) [Example 14, 6-(difluoromethyl)-N-(7-ethoxy-2-((tetrahydrofuran-3-yl)methyl)imidazo[1,2-a]pyridin-6-yl)picolinamide] | 0.001
11 | CC12CC(c3cn4cc(NC(=O)c5cccc(C(F)F)n5)nc(O)c4n3)(CO1)C2 [Example 200, 6-(difluoromethyl)-N-(8-hydroxy-2-(1-methyl-2-oxabicyclo[2.1.1]hexan-4-yl)imidazo[1,2-a]pyrazin-6-yl)picolinamide] | 0.06
12 | COc1nc2nc(C3C4COCC43)cn2cc1NC(=O)c1cccc(C(F)F)n1 (centres unmarked) [Example 568, N-(2-(3-oxabicyclo[3.1.0]hexan-6-yl)-7-methoxyimidazo[1,2-a]pyrimidin-6-yl)-6-(difluoromethyl)picolinamide 2,2,2-trifluoroacetate] | 0.009
13 | COc1ncccc1C(=O)Nc1cn2cc(C34COC(C)(C3)C4)nc2cc1C(F)F [Example 391, N-(7-(difluoromethyl)-2-(1-methyl-2-oxabicyclo[2.1.1]hexan-4-yl)imidazo[1,2-a]pyridin-6-yl)-2-methoxynicotinamide 2,2,2-trifluoroacetate] | 0.021

Results, then the compound that gave them:

Row | IC50 [µM] | SMILES
14 | 0.012 | COc1nc(NC(=O)c2cccc3c2OCC3)cn2cc(C34COC(C)(C3)C4)nc12 [Example 445, N-(8-methoxy-2-(1-methyl-2-oxabicyclo[2.1.1]hexan-4-yl)imidazo[1,2-a]pyrazin-6-yl)-2,3-dihydrobenzofuran-7-carboxamide 2,2,2-trifluoroacetate]
15 | 0.059 | COc1c(F)cccc1C(=O)Nc1cn2cc(C34CCC(C)(C3)OC4)nc2c(OC)n1 (centres unmarked) [Example 466, 3-fluoro-2-methoxy-N-(8-methoxy-2-(1-methyl-2-oxabicyclo[2.2.1]heptan-4-yl)imidazo[1,2-a]pyrazin-6-yl)benzamide 2,2,2-trifluoroacetate]
16 | 0.051 | COc1nc(NC(=O)c2cccc(C)c2F)cn2cc(C34CCC(C)(C3)OC4)nc12 (centres unmarked) [Example 467, 2-fluoro-N-(8-methoxy-2-(1-methyl-2-oxabicyclo[2.2.1]heptan-4-yl)imidazo[1,2-a]pyrazin-6-yl)-3-methylbenzamide 2,2,2-trifluoroacetate]
17 | 0.023 | COc1cccc(C(=O)Nc2cn3cc(C45COC(C)(C4)C5)nc3c(OC)n2)n1 [Example 448, 6-methoxy-N-(8-methoxy-2-(1-methyl-2-oxabicyclo[2.1.1]hexan-4-yl)imidazo[1,2-a]pyrazin-6-yl)picolinamide 2,2,2-trifluoroacetate]
18 | 0.01 | COc1ncccc1C(=O)Nc1cn2cc(C34COC(C)(C3)C4)nc2c(F)c1OC(C)C [Example 428, N-(8-fluoro-7-isopropoxy-2-(1-methyl-2-oxabicyclo[2.1.1]hexan-4-yl)imidazo[1,2-a]pyridin-6-yl)-2-methoxynicotinamide]
19 | 0.023 | COc1ccccc1C(=O)Nc1cn2cc(C34COC(C)(C3)C4)nc2c(OC)n1 [Example 443, 2-methoxy-N-(8-methoxy-2-(1-methyl-2-oxabicyclo[2.1.1]hexan-4-yl)imidazo[1,2-a]pyrazin-6-yl)benzamide]
20 | 0.017 | COc1ccccc1C(=O)Nc1cn2cc(C34COC(C)(C3)C4)nc2c(F)c1OC(C)C [Example 424, N-(8-fluoro-7-isopropoxy-2-(1-methyl-2-oxabicyclo[2.1.1]hexan-4-yl)imidazo[1,2-a]pyridin-6-yl)-2-methoxybenzamide 2,2,2-trifluoroacetate]
21 | 0.003 | COc1c(F)cccc1C(=O)Nc1cn2cc(C34COC(C)(C3)C4)nc2nc1OC(C)C [Example 489, 3-fluoro-N-(7-isopropoxy-2-(1-methyl-2-oxabicyclo[2.1.1]hexan-4-yl)imidazo[1,2-a]pyrimidin-6-yl)-2-methoxybenzamide 2,2,2-trifluoroacetate]
22 | 0.005 | CC(C)Oc1nc(NC(=O)c2cccc3ncnn23)cn2cc(C34COC(C)(C3)C4)nc12 [Example 480, N-(8-isopropoxy-2-(1-methyl-2-oxabicyclo[2.1.1]hexan-4-yl)imidazo[1,2-a]pyrazin-6-yl)-[1,2,4]triazolo[1,5-a]pyridine-5-carboxamide]
23 | 0.002 | CC(C)Oc1c(NC(=O)c2ccn(C)n2)cn2cc(C34CCC(C)(C3)OC4)nc2c1F (centres unmarked) [Example 325, N-(8-fluoro-7-isopropoxy-2-(1-methyl-2-oxabicyclo[2.2.1]heptan-4-yl)imidazo[1,2-a]pyridin-6-yl)-1-methyl-1H-pyrazole-3-carboxamide]
